# Results taken from paper PMC9403987 (Frontiers in Oncology, 2022).
# What was measured:
# Test in all cases: Cell proliferation assay
# Format in all cases: cell-based, Homo sapiens
# SNU-449 = conditions: SNU-449, liver, hepatocellular carcinoma, 72 hours
# Protocol: (§1) To quantify cell proliferation, either the nuclei of live cells were counted following staining with 4’,6-diamidino-2-phenylindole (DAPI; Sigma-Aldrich, Burlington, MA, USA), or metabolically active cells were detected using a CellTiter-Glo assay (Promega Corporation, Madison, WI, USA). Cells from a range of human and mammalian tumor cell lines (American Type Culture Collection, Manassas, VA, USA) were seeded at 4000 cells per well in 100 μL of culture medium in a 96-well plate and incubated overnight at 37°C with 5% CO2. […] In the DAPI staining method, cells were washed using 1× phosphate-buffered saline (PBS; Gibco Thermo Fisher Scientific, Waltham, MA, USA), fixed with 4% formaldehyde, permeabilized with 0.2% Triton X-100 (Sigma-Aldrich), washed again, and stained with 1 μg/mL DAPI to visualize cell nuclei. Cells were washed with 1× PBS three times, and 100 μL 1× PBS was added to each well. Plates were scanned using an IN Cell Analyzer 2200 (GE Healthcare Life Sciences, Chicago, IL, USA) and the number of cells per well was recorded. In the CellTiter-Glo assay, 60 μL of CellTiter-Glo luminescent solution was added to each well after incubation with the test compounds, and the assay plate was scanned using a Tecan Infinite M1000 PRO microplate reader (Tecan Group AG, Männedorf, Switzerland) to record luminescent signals.
# Huh-1 = conditions: Huh-1, liver, hepatocellular carcinoma, 72 hours
# Protocol: as §1
# NCI-H23 = conditions: NCI-H23, lung, NSCLC, 72 hours
# Protocol: as §1
# MHCC97 = conditions: MHCC97, liver, hepatocellular carcinoma, 72 hours
# Protocol: as §1
# MDA-MB-231 = conditions: MDA-MB-231, breast carcinoma, 72 hours
# Protocol: as §1
# SNU-761 = conditions: SNU-761, lung carcinoma, 72 hours
# Protocol: as §1
# U251 = conditions: U251, brain, glioblastoma, 72 hours
# Protocol: as §1
# SK-N-BE(2) = conditions: neuroblastoma, 72 hours
# Protocol: as §1
# SNU-475 = conditions: SNU-475, liver, hepatocellular carcinoma, 72 hours
# Protocol: as §1
# NCI-H1915 = conditions: NCI-H1915, lung, NSCLC, 72 hours
# Protocol: as §1
# HLE = conditions: liver, hepatocellular carcinoma, 72 hours
# Protocol: as §1
# M059K = conditions: brain, glioblastoma, 72 hours
# Protocol: as §1
# A172 = conditions: A172, brain, glioblastoma, 72 hours
# Protocol: as §1
# T98G = conditions: brain, glioblastoma, 72 hours
# Protocol: as §1
# SNU-182 = conditions: SNU-182, liver, hepatocellular carcinoma, 72 hours
# Protocol: as §1
# LS174T = conditions: colon carcinoma, 72 hours
# Protocol: as §1
# LN229 = conditions: LN229, brain, glioblastoma, 72 hours
# Protocol: as §1
# U118-MG = conditions: brain, glioblastoma, 72 hours
# Protocol: as §1
# CHP-212 = conditions: CHP-212, brain, neuroblastoma, 72 hours
# Protocol: as §1
# NCI-H1838 = conditions: NCI-H1838, lung, NSCLC, 72 hours
# Protocol: as §1
# Huh-7 = conditions: Huh-7, liver, hepatocellular carcinoma, 72 hours
# Protocol: as §1
# HCT8 = conditions: HCT8, colorectal carcinoma, 72 hours
# Protocol: as §1
# HTC116 = conditions: HTC116, colorectal carcinoma, 72 hours
# Protocol: as §1
# MHCC97H = conditions: liver, hepatocellular carcinoma, 72 hours
# Protocol: as §1
# IMR32 = conditions: IMR32, brain, neuroblastoma, 72 hours
# Protocol: as §1
# SNU-387 = conditions: SNU-387, liver, hepatocellular carcinoma, 72 hours
# Protocol: as §1
# SW620 = conditions: SW620, colon carcinoma, 72 hours
# Protocol: as §1
# HL7702 = conditions: HL7702, liver, 72 hours
# Protocol: as §1
# NCI-H1792 = conditions: NCI-H1792, lung carcinoma, 72 hours
# Protocol: as §1
# Daoy = conditions: brain, desmoplastic cerebellar medulloblastoma, 72 hours
# Protocol: as §1
# Caco-2 = conditions: Caco-2, colorectal carcinoma, 72 hours
# Protocol: as §1
# Hep G2 = conditions: Hep G2, liver, hepatocellular carcinoma, 72 hours
# Protocol: as §1
# MDA-MB-468 = conditions: MDA-MB-468, breast carcinoma, 72 hours
# Protocol: as §1
# NCI-H292 = conditions: NCI-H292, lung, mucoepidermoid pulmonary carcinoma, 72 hours
# Protocol: as §1
# DBTRG-05MG = conditions: brain, glioblastoma, 72 hours
# Protocol: as §1
smiles,measurement,setting,value
"CCN1CCN(Cc2ccc(Nc3ncc(F)c(-c4cc(F)c5nc(C)n(C(C)C)c5c4)n3)nc2)CC1 [Abemaciclib, abemaciclib, reference compound]",IC50,SNU-449; Homo sapiens,159 nM
same,IC50,Huh-1; Homo sapiens,365 nM
same,IC50,NCI-H23; Homo sapiens,904 nM
same,IC50,MHCC97; Homo sapiens,1100 nM
same,IC50,MDA-MB-231; Homo sapiens,48 nM
same,IC50,SNU-761; Homo sapiens,54 nM
same,IC50,"U251; Homo sapiens, U-251",151 nM
same,IC50,"SK-N-BE(2); Homo sapiens, SKNBE2, brain",133 nM
same,IC50,SNU-475; Homo sapiens,195 nM
same,IC50,NCI-H1915; Homo sapiens,324 nM
same,IC50,HLE; Homo sapiens,389 nM
same,IC50,M059K; Homo sapiens,871 nM
same,IC50,"A172; Homo sapiens, A 172",112 nM
same,IC50,T98G; Homo sapiens,168 nM
same,IC50,SNU-182; Homo sapiens,> 10000 nM
same,IC50,LS174T; Homo sapiens,96 nM
same,IC50,"LN229; Homo sapiens, LN-229",35 nM
same,IC50,"U118-MG; Homo sapiens, U-118-MG",86 nM
same,IC50,CHP-212; Homo sapiens,32 nM
same,IC50,NCI-H1838; Homo sapiens,90 nM
same,IC50,Huh-7; Homo sapiens,75 nM
same,IC50,"HCT8; Homo sapiens, HCT-8",384 nM
same,IC50,HTC116; Homo sapiens,76 nM
same,IC50,MHCC97H; Homo sapiens,137 nM
same,IC50,"IMR32; Homo sapiens, IMR-32",25 nM
same,IC50,SNU-387; Homo sapiens,193 nM
same,IC50,"SW620; Homo sapiens, SW-620",10 nM
same,IC50,"HL7702; Homo sapiens, L02",1720 nM
same,IC50,NCI-H1792; Homo sapiens,23 nM
same,IC50,Daoy; Homo sapiens,> 10000 nM
same,IC50,Caco-2; Homo sapiens,395 nM
same,IC50,"Hep G2; Homo sapiens, HepG2",3200 nM
same,IC50,MDA-MB-468; Homo sapiens,1250 nM
same,IC50,NCI-H292; Homo sapiens,149 nM
same,IC50,DBTRG-05MG; Homo sapiens,13 nM
CC1=Nc2c(F)cc(-c3nc(Nc4ccc(C5CCN(C)CC5)cn4)ncc3F)cc2C12CCCC2 [GLR2007],IC50,SNU-449,67 nM
same,IC50,Huh-1,261 nM
same,IC50,NCI-H23,243 nM
same,IC50,MHCC97,353 nM
same,IC50,MDA-MB-231,44 nM
same,IC50,SNU-761,8 nM
same,IC50,U251,53 nM
same,IC50,SK-N-BE(2); brain,130 nM
same,IC50,SNU-475,85 nM
same,IC50,NCI-H1915,53 nM
same,IC50,HLE,143 nM
same,IC50,M059K,3250 nM
same,IC50,A172,41 nM
same,IC50,T98G,110 nM
same,IC50,SNU-182,2240 nM
same,IC50,LS174T,160 nM
same,IC50,LN229,17 nM
same,IC50,U118-MG,23 nM
same,IC50,CHP-212,18 nM
same,IC50,NCI-H1838,48 nM
same,IC50,Huh-7,43 nM
same,IC50,HCT8,81 nM
same,IC50,HTC116,38 nM
same,IC50,MHCC97H,66 nM
same,IC50,IMR32,21 nM
same,IC50,SNU-387,68 nM
same,IC50,SW620,10 nM
same,IC50,HL7702,1940 nM
same,IC50,NCI-H1792,3 nM
same,IC50,Daoy,3960 nM
same,IC50,Caco-2,453 nM
same,IC50,Hep G2,2550 nM
same,IC50,MDA-MB-468,1940 nM
same,IC50,NCI-H292,73 nM
same,IC50,DBTRG-05MG,6 nM
